Source: ChEMBL document CHEMBL3885881, “DrugMatrix”

Organism: Rattus norvegicus
Assay: DrugMatrix - Regimen: Daily Repeat
Format: toxicity, organism-based, Sprague-Dawley
Parameters: regimen Daily Repeat, gender Male, age 6-8 weeks
Settings: in vivo, po, route oral GAVAGE, vehicle .5 % CMC; for BASOPHIL / EOSINOPHIL / ERYTHROCYTE COUNT / HEMATOCRIT / HEMOGLOBIN / LEUKOCYTE COUNT / LYMPHOCYTE / MEAN CORPUSCULAR HEMOGLOBIN / MEAN CORPUSCULAR HEMOGLOBIN CONCENTRATION / MEAN CORPUSCULAR VOLUME / MONOCYTE / NEUTROPHIL / PLATELET COUNT: tissue Blood; for ALANINE AMINOTRANSFERASE / ALBUMIN / ALKALINE PHOSPHATASE / ASPARTATE AMINOTRANSFERASE / BLOOD UREA NITROGEN / CHLORIDE / CHOLESTEROL / CREATINE PHOSPHOKINASE / CREATININE / GLUCOSE / PHOSPHORUS / POTASSIUM / SODIUM / TOTAL BILIRUBIN / TOTAL PROTEIN: tissue Plasma
[1] = 69 mg/kg, 72 h, dose level High, time 3 day
[2] = 69 mg/kg, 120 h, dose level High, time 5 day
[3] = […], 72 h, dose 6.9 mg/Kg, dose level Low, time 3 day
[4] = […], 120 h, dose 6.9 mg/Kg, dose level Low, time 5 day

## COc1ccc(Cc2nccc3cc(OC)c(OC)cc23)cc1OC [PAPAVERINE]
[1]
  BASOPHIL: 0%
  EOSINOPHIL: 0.33%
  ERYTHROCYTE COUNT: 6.13 x10E6/uL
  HEMATOCRIT: 36.97%
  HEMOGLOBIN: 14.43 G/DL
  LEUKOCYTE COUNT: 10.73 x10E3/uL
  LYMPHOCYTE: 85%
  MEAN CORPUSCULAR HEMOGLOBIN: 23.67 pg
  MEAN CORPUSCULAR HEMOGLOBIN CONCENTRATION: 39.07 G/DL
  MEAN CORPUSCULAR VOLUME: 60.5 fL
  MONOCYTE: 1%
  NEUTROPHIL: 13.67%
  PLATELET COUNT: 1169 x10E3/uL
  ALANINE AMINOTRANSFERASE: 36.33 u/L
  ALBUMIN: 3.83 G/DL
  ALKALINE PHOSPHATASE: 289.67 u/L
  ASPARTATE AMINOTRANSFERASE: 57.33 u/L
  BLOOD UREA NITROGEN: 13.67 mg/dL
  CHLORIDE: 107.67 MEQ/L
  CHOLESTEROL: 66.33 mg/dL
  CREATINE PHOSPHOKINASE: 129.67 u/L
  CREATININE: 0.5 mg/dL
  GLUCOSE: 195.67 mg/dL
  PHOSPHORUS: 11.97 mg/dL
  POTASSIUM: 6.9 MEQ/L
  SODIUM: 152.33 MEQ/L
  TOTAL BILIRUBIN: 0.3 mg/dL
  TOTAL PROTEIN: 6.13 G/DL
[2]
  BASOPHIL: 0%
  EOSINOPHIL: 0%
  ERYTHROCYTE COUNT: 5.8 x10E6/uL
  HEMATOCRIT: 35.07%
  HEMOGLOBIN: 14.43 G/DL
  LEUKOCYTE COUNT: 15.23 x10E3/uL
  LYMPHOCYTE: 84.33%
  MEAN CORPUSCULAR HEMOGLOBIN: 24.97 pg
  MEAN CORPUSCULAR HEMOGLOBIN CONCENTRATION: 41.27 G/DL
  MEAN CORPUSCULAR VOLUME: 60.43 fL
  MONOCYTE: 3.67%
  NEUTROPHIL: 12%
  PLATELET COUNT: 973 x10E3/uL
  ALANINE AMINOTRANSFERASE: 34 u/L
  ALBUMIN: 3.67 G/DL
  ALKALINE PHOSPHATASE: 334 u/L
  ASPARTATE AMINOTRANSFERASE: 56.33 u/L
  BLOOD UREA NITROGEN: 12.33 mg/dL
  CHLORIDE: 105.33 MEQ/L
  CHOLESTEROL: 57.67 mg/dL
  CREATINE PHOSPHOKINASE: 142.67 u/L
  CREATININE: 0.57 mg/dL
  GLUCOSE: 174.33 mg/dL
  PHOSPHORUS: 11.33 mg/dL
  POTASSIUM: 7 MEQ/L
  SODIUM: 149.67 MEQ/L
  TOTAL BILIRUBIN: 0.43 mg/dL
  TOTAL PROTEIN: 5.8 G/DL
[3]
  BASOPHIL: 0%
  EOSINOPHIL: 0.33%
  ERYTHROCYTE COUNT: 5.94 x10E6/uL
  HEMATOCRIT: 35.17%
  HEMOGLOBIN: 14.13 G/DL
  LEUKOCYTE COUNT: 12.43 x10E3/uL
  LYMPHOCYTE: 87.33%
  MEAN CORPUSCULAR HEMOGLOBIN: 23.8 pg
  MEAN CORPUSCULAR HEMOGLOBIN CONCENTRATION: 40.2 G/DL
  MEAN CORPUSCULAR VOLUME: 59.13 fL
  MONOCYTE: 2.33%
  NEUTROPHIL: 10%
  PLATELET COUNT: 1083 x10E3/uL
  ALANINE AMINOTRANSFERASE: 43.67 u/L
  ALBUMIN: 3.7 G/DL
  ALKALINE PHOSPHATASE: 347.67 u/L
  ASPARTATE AMINOTRANSFERASE: 64.67 u/L
  BLOOD UREA NITROGEN: 11.67 mg/dL
  CHLORIDE: 107 MEQ/L
  CHOLESTEROL: 64.33 mg/dL
  CREATINE PHOSPHOKINASE: 170 u/L
  CREATININE: 0.5 mg/dL
  GLUCOSE: 172 mg/dL
  PHOSPHORUS: 11.1 mg/dL
  POTASSIUM: 6.23 MEQ/L
  SODIUM: 149 MEQ/L
  TOTAL BILIRUBIN: 0.37 mg/dL
  TOTAL PROTEIN: 5.77 G/DL
[4]
  BASOPHIL: 0%
  EOSINOPHIL: 0.33%
  ERYTHROCYTE COUNT: 6.2 x10E6/uL
  HEMATOCRIT: 37.4%
  HEMOGLOBIN: 15.4 G/DL
  LEUKOCYTE COUNT: 12.83 x10E3/uL
  LYMPHOCYTE: 87.33%
  MEAN CORPUSCULAR HEMOGLOBIN: 24.87 pg
  MEAN CORPUSCULAR HEMOGLOBIN CONCENTRATION: 41.17 G/DL
  MEAN CORPUSCULAR VOLUME: 60.33 fL
  MONOCYTE: 1.33%
  NEUTROPHIL: 11%
  PLATELET COUNT: 1006 x10E3/uL
  ALANINE AMINOTRANSFERASE: 35 u/L
  ALBUMIN: 3.73 G/DL
  ALKALINE PHOSPHATASE: 374.33 u/L
  ASPARTATE AMINOTRANSFERASE: 60.33 u/L
  BLOOD UREA NITROGEN: 12.33 mg/dL
  CHLORIDE: 108.33 MEQ/L
  CHOLESTEROL: 61.33 mg/dL
  CREATINE PHOSPHOKINASE: 131.67 u/L
  CREATININE: 0.6 mg/dL
  GLUCOSE: 168.67 mg/dL
  PHOSPHORUS: 10.03 mg/dL
  POTASSIUM: 6.13 MEQ/L
  SODIUM: 153.67 MEQ/L
  TOTAL BILIRUBIN: 0.33 mg/dL
  TOTAL PROTEIN: 5.97 G/DL
